In article PMC11952846, “The sterol-regulating human ARV1 binds cholesterol and phospholipids through its conserved ARV1 homology domain” (The Journal of Biological Chemistry, 2025):
Positions count from the first letter of the chain named.

Tests used:
6XHIS-ARV1-N98 K84A = molecular target: T1, 6XHIS-ARV1-N98 K84A (Homo sapiens, UniProt Q9H2C2, K84A); assay: Lipid overlay far western, site-directed mutant; format: binding; details: compared to the ARV1-N98 protein
T1 construct: Expressing amino-terminal 98 amino acids of ARV1; made in house; host or cells: E. coli BL21 (pET-28a(+))
T1 sequence (Q9H2C2 1-98 K84A): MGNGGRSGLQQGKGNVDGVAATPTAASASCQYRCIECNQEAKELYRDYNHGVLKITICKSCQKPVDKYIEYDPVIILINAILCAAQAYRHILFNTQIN
Method: (§1) Lipid overlays were blocked in TBST-BSA (100 mM Tris–HCl buffer, pH 7.5, 150 mM NaCl, 0.5% Tween 20, 3% bovine serum albumin) for 1 h and subsequently washed eight separate times with TBST for 2 min each. Overlays were incubated with 0.5 μg/ml GST-tagged or 6XHIS-tagged proteins in 3% TBST-BSA buffer containing 0.1% Triton X-100, for 1 h at room temperature and washed as above. Overlays were incubated with either anti-GST or anti-6XHIS monoclonal antibodies at a 1:1000 dilution in TBST-BSA for 1 h at room temperature followed by eight washes in TBST. Overlays were visualized using Immobilon Western Chemiluminescent horseradish peroxidase substrate and protein–lipid interaction was detected using a GE ImageQuant LAS 3000 imager.

GST-ARV1-N50 = molecular target: T2, GST-ARV1-N50 (Homo sapiens, UniProt Q9H2C2); assay: Lipid overlay far western, truncation; format: binding; details: compared to ARV1-N98 / ARV1-N70
T2 construct: Expresses amino-terminal 50 amino acids of ARV1; made in house; host or cells: E. coli BL21 (pGEX-4T1)
T2 sequence (Q9H2C2 1-50): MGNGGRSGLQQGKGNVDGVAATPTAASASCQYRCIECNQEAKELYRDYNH
Method: as §1

6XHIS-N98 K84A = molecular target: T3, 6XHIS-N98 K84A (Homo sapiens, UniProt Q9H2C2, K84A); assay: HTRF phospholipid lipid-binding assay, mutant; parameters: key to Bio-PL, EC50, M ± S.D.: NC, no change; details: biotinylated lipid, NC = no change vs N98
T3 construct: made in house; host or cells: E. coli BL21
T3 sequence (Q9H2C2 1-98 K84A): T1 sequence (Q9H2C2 1-98 K84A)
Excerpt: An HTRF assay was developed for 6XHIS-ARV1-N98-lipid binding. HTRF measures analyte interactions through fluorescence resonance energy transfer technology and time-resolved measurements ([53]). The interaction between two molecules can be quantified through binding each individual molecule involved with a fluorescent label and then analyzing the transfer of energy between the initial donor fluorophore and the secondary acceptor fluorophore. Following excitation of the first fluorophore, transfer of energy can only occur if the molecules bound with the fluorescent tags are within proximity to each other.
Assays were plated in 384-well flat bottom microplates (Greiner Bio, catalog #784075-25). Proteins were diluted using binding buffer (20 mM Hepes buffer, pH 7.2, containing 0.1% BSA, and 0.01% Tween20) to a stock concentration of 0.75 μM, and biotinylated phospholipids were dispensed, dried under nitrogen gas, and resuspended in binding buffer to a stock concentration of 50 μM. The lipid stock solution was diluted by 1:2 for a series of 12 serial dilutions. For the assay, in sequential order, 6 μl of binding buffer was loaded into the plate in triplicate for each dilution of phospholipid. To this, 2 μl of 0.75 μM 6XHIS-ARV1-N98 was added, followed by 2 μl of biotinylated phospholipid. Immediately following each addition loaded into the plate, the plate was centrifuged for 1 min at 1000 rpm to bring the contents to the bottom of the well. Next, detection antibodies were mixed with detection buffer (20 mM Hepes buffer, pH 8.5, containing 0.01% BSA and 200 mM KF). Antibodies were a MAb anti-6XHIS Europium kryptate-conjugated D1 fluorescent antibody (Cisbio, #61HISKLA) and Streptavidin-conjugated d2 fluorescent antibody (Cisbio, #610SADLA). For each 1000 μl of detection buffer, 5 μl of each antibody was added just prior to loading 10 μl into each well. The plate was again centrifuged for 1 min at 1000 rpm and stored in a sealed container overnight, in the dark. Plates were read on a PerkinElmer EnVision Xcite Multilabel plate reader.
Curves were logarithmically transformed and normalized to a common scale before being fit with a nonlinear regression of the agonist against the normalized response. This generated half maximal effective concentration values (EC50; M) that could then be compared between different lipids. In the context of our study, EC50 values were defined as a measure of protein sensitivity to binding to a particular lipid within a dose response curve. For phospholipid competition analysis, IC50; M values were determined using nonlinear regression of the inhibitor against normalized response.

6XHIS-ARV1-N98 C34/C37A = molecular target: T4, 6XHIS-ARV1-N98 C34/C37A (Homo sapiens, UniProt Q9H2C2, C34A/C37A); assay: Lipid overlay far western, site-directed mutant; format: binding; details: compared to the ARV1-N98 protein
T4 construct: Expressing amino-terminal 98 amino acids of ARV1; made in house; host or cells: E. coli BL21 (pET-28a(+))
T4 sequence (Q9H2C2 1-98 C34A/C37A): T1 sequence (Q9H2C2 1-98 K84A) with C34A, C37A, A84K
Method: as §1

6XHIS-ARV1-N98 K67A = molecular target: T5, 6XHIS-ARV1-N98 K67A (Homo sapiens, UniProt Q9H2C2, K67A); assay: Lipid overlay far western, site-directed mutant; format: binding; details: compared to the ARV1-N98 protein
T5 construct: Expressing amino-terminal 98 amino acids of ARV1; made in house; host or cells: E. coli BL21 (pET-28a(+))
T5 sequence (Q9H2C2 1-98 K67A): T1 sequence (Q9H2C2 1-98 K84A) with K67A, A84K
Method: as §1

Compound | change of lipid-protein interaction (6XHIS-ARV1-N98 K84A) | change of lipid-protein interaction (GST-ARV1-N50) | Bio-PL, EC50, M ± S.D. (6XHIS-N98 K84A) | change of lipid-protein interaction (6XHIS-ARV1-N98 C34/C37A) | change of lipid-protein interaction (6XHIS-ARV1-N98 K67A) | EC50 (6XHIS-N98 K84A; read-out: Bio-PL, EC50, M ± S.D.) [nM]
CCCCC/C=C\C/C=C\CCCCCCCC(=O)OC[C@H](COP(=O)(O)OCC(O)COP(=O)(O)OC[C@@H](COC(=O)CCCCCCC/C=C\C/C=C\CCCCC)OC(=O)CCCCCCC/C=C\C/C=C\CCCCC)OC(=O)CCCCCCC/C=C\C/C=C\CCCCC (some centres unmarked) [CL, cardiolipin] | weakened | eliminated | – | – | – | –
CCCCCCCCCCCCCCCC(=O)OC[C@H](COP(=O)(O)O)OC(=O)CCCCCCCCCCCCCCC [PA, phosphatidic acid] | – | – | NC | – | – | –
CCCCCCCC/C=C\CCCCCCCC(=O)OC[C@H](COP(=O)(O)OCC(O)CO)OC(=O)CCCCCCC/C=C\CCCCCCCC (some centres unmarked) [PG, phosphatidylglycerol] | weakened | eliminated | reduced | weakened or eliminated | weakened | –
CCCCCCCCCCCCCCCCCC(=O)OC[C@H](COP(=O)(O)OC[C@H](N)C(=O)O)OC(=O)CCCCCCCCCCCCCCCCC [PS, phosphatidylserine] | – | restored | NC | enhanced | – | –
CCCCCC(=O)O[C@H](COC(=O)CCCCCNC(=O)CCCC[C@@H]1SC[C@@H]2NC(=O)N[C@@H]21)COP(=O)(O)O[C@H]1[C@H](O)[C@@H](O)[C@H](OP(=O)(O)O)[C@@H](O)[C@H]1O [reference compound] | increased interactions | – | – | enhanced interactions | increased interactions | –
phosphatidylcholine [PC] | – | – | NC | – | – | –
phosphatidylethanolamine [PE] | – | – | – | – | interacted weakly | 210
